Test results: patent US6590107B1, “Synthesis, anti-human immunodeficiency virus, and anti-hepatitis B virus activities of 1,3-oxaselenolane nucleosides” (Emory University, priority 1997, dated 2003)
pEC50, pIC50: −log10 of the molar value. Read-outs that look alike come from different tables or passages of the source.

Experiments:
HIV = details: comparison with AZT; cited from earlier work
[1] = system: uninfected human PBM cells; test: Toxicity: growth of mitogen-stimulated uninfected human PBM cells; type: cell-based; details: for IC50: mitogen-stimulated uninfected human PBM cells, read-out: Toxicity (IC50 μM) PMB; for pIC50: Table 5, cytotoxicity in PBM cells, read-out: IC50 PBM
Description: Mitogen stimulated uninfected human PBM cells (3.8×10^5 cells/ml) were cultured in the presence and absence of drug under similar conditions as those used for the antiviral assay described above. The cells were counted after 6 days using a hemacytometer and the trypan blue exclusion method, as described by Schinazi, et al., (Antimicrobial Agents and Chemotherapy, 22(3), 499 (1982)).

CEM cells = test: Toxicity in CEM cells; type: cell-based, human
Text: Some of the 1,3-oxaselenolanyl nucleosides described herein can be used to treat abnormal cellular proliferation, including tumors and cancer. The extent of antiproliferative activity can be easily assessed by assaying the compound according to the procedure below in a CEM cell or other tumor or proliferative cell line assay. CEM cells are human lymphoma cells (a T-lymphoblastoid cell line that can be obtained from ATCC, Rockville, Md.). The toxicity of a compound to CEM cells provides useful information regarding the activity of the compound against tumors. The toxicity is measured as IC50 micromolar).
Drug solutions, including cycloheximide as a positive control, are plated in triplicate in 50 μl growth medium at 2 times the final concentration and allowed to equilibrate at 37° C. in a 5% CO2 incubator. […] Absorbance is read at 570 nm, blanking on the medium-only wells using a Biotek Biokinetics plate read (Biotek, Winooski, Vt.). Average percent inhibition of growth compared to the untreated control is calculated. IC50, IC90, slope and r value are calculated by the method of Chou and Talaly. Chou T-C, Talalay P. Quantitative analysis of dose-effect relationships: The combined effects of multiple drugs or enzyme inhibitors. […]

HIV-1 (strain LAV) = type: cell-based; details: for EC50: PBM cells, HIV-1 strain LAV, estimated 10% error factor, read-out: Anti-HIV Activity in PBM Cells (EC50 μM); for EC90 / pEC50: Table 5, anti-HIV activity in PBM cells; for pEC50: read-out: EC50
Description: The ability of nucleosides to inhibit HIV can be measured by various experimental techniques. The technique used herein, and described in detail below, measures the inhibition of viral replication in phytohemaggluinin (PHA) stimulated human peripheral blood mononuclear (PBM) cells infected with HIV-1 (strain LAV). The amount of virus produced is determined by measuring the virus-coded reverse transcriptase enzyme. The amount of enzyme produced is proportional to the amount of virus produced.
Three-day old phytohemagglutinin-stimulated PBM cells (10^6 cells/ml) from hepatitis B and HIV-1 seronegative healthy donors were infected with HIV-1 (strain LAV) at a concentration of about 100 times the 50% tissue culture infections dose (TICD 50) per ml and cultured in the presence and absence of various concentrations of antiviral compounds.
Approximately one hour after infection, the medium, with the compound to be tested (2 times the final concentration in medium) or without compound, was added to the flasks (5 ml; final volume 10 ml). AZT was used as a positive control.
The cells were exposed to the virus (about 2×10^5 dpm/ml, as determined by reverse transcriptase assay) and then placed in a CO2 incubator. HIV-1 (strain LAV) was obtained from the Center for Disease Control, Atlanta, Ga. The methods used for culturing the PBM cells, harvesting the virus and determining the reverse transcriptase activity were those described by McDougal, et al. (J. Immun. Meth. 76, 171-183, 1985) and Spira, et al. (J. Clin. Meth. 25, 97-99, 1987), except that fungizone was not included in the medium (see Schinazi, et al., Antimicrob. Agents Chemother. 32, 1784-1787 (1988); Id., 34:1061-1067 (1990)).
On day 6, the cells and supernatant were tnansferred to a 15 ml tube and centrifuged at about 900 g for 10 minutes. Five ml of supernatant was removed and the virus was concentrated by centrifugation at 40,000 rpm for 30 minutes (Beckman 70.1 Ti rotor). The solubilized virus pellet was processed for determination of the levels of reverse transcriptase. Results are expressed in dpm/ml of sampled supernatant. Virus from smaller volumes of supernatant (1 ml) can also be concentrated by centriguation prior to solubilization and determination of reverse transcriptase levels.
The median effective (EC50) concentration was determined by the median effect-method (Antimicrob. Agents Chemother. 30, 491-498 (1986)). Briefly, the percent inhibition of virus, as determined from measurements of reverse transcriptase, is plotted versus the micromolar concentration of compound.

Vero cells = test: Toxicity in Vero cells; type: cell-based
[2] = system: Cloned M184 HIV-1 (M184V); test: Anti-HIV activity in PBM cells infected with cloned M184V HIV-1 (mutation at codon 184 of reverse transcriptase gene); type: cell-based; details: for FI EC50 (fold increase): EC50 data from cloned virus/EC50 data from xxBRU; for FI EC90 (fold increase): EC90 M184V versus xxBRU; for pEC50 / EC90: Virus M184V; for pEC50 / EC90 / activity against the mutated virus: PBM cells; for activity against the mutated virus: HIV with mutation at codon 184 in reverse transcriptase gene
xxBRU HIV-1 = test: Anti-HIV activity in PBM cells, virus xxBRU; type: cell-based

Row | Structure (SMILES) | FI EC50 (fold increase) [2] | FI EC90 (fold increase) [2] | pEC50 [2] | EC90 [2] [µM] | pIC50 [1] | EC90 (HIV-1 (strain LAV)) [µM] | pEC50 (HIV-1 (strain LAV)) | pEC50 (xxBRU HIV-1) | EC90 (xxBRU HIV-1) [µM] | also measured
1 | Nc1ccn(C2CSC(CO)O2)c(=O)n1 (racemic) [BCH-189, 2-hydroxymethyl-5-(cytosin-1-yl)-1,3-oxathiolane] | – | – | – | – | – | – | – | – | – | activity against HIV relative to AZT (HIV): approximately the same activity against HIV as AZT
2 | Nc1ccn(C2C[Se]C(CO)O2)c(=O)n1 (centres unmarked) | – | – | – | – | – | – | – | – | – | IC50 [1]: > 100 µM; IC50 (CEM cells): > 100 µM; EC50 (HIV-1 (strain LAV)): 0.88 µM; IC50 (Vero cells): > 100 µM
3 | Nc1nc(=O)n(C2C[Se]C(CO)O2)cc1F [(−)-β-Se-FddC, 1-β-L-(2′-Hydroxymethyl-1′,3′-oxaselenolane-5′-yl)-5-fluorocytosine] | >455 | >53 | < 4.30 | > 50 | < 4.00 | 1.05 | 6.68 | – | – | –
4 | Nc1nc(=O)n(C2C[Se]C(CO)O2)cc1F (centres unmarked) [Compound 5-F-Cytosine] | – | – | – | – | – | – | – | – | – | IC50 [1]: > 100 µM; IC50 (CEM cells): > 100 µM; EC50 (HIV-1 (strain LAV)): 0.07 µM; IC50 (Vero cells): > 100 µM
5 | Nc1nc(=O)n(C2C[Se]C(CO)O2)cc1F [(+)-β-Se-FddC, 1-β-D-(2′-hydroxymethyl-1′,3′-oxaselenolane-5′-yl)-5-fluorocytosine] | >6 | >1 | < 4.30 | > 50 | < 4.00 | 164 | 4.38 | – | – | –
6 | Nc1ccn([C@H]2C[Se][C@@H](CO)O2)c(=O)n1 [(−)-β-Se-ddC, (−)-(2S,5R)-β-L-2′,3′-dideoxy-3′-seleno-cytidine] | – | – | – | – | < 4.00 | 5.42 | 6.06 | 6.96 | 0.95 | activity against the mutated virus [2]: significant activity
7 | Nc1ccn([C@@H]2C[Se][C@H](CO)O2)c(=O)n1 [(+)-β-Se-ddC, (+)-(2R,5S)-β-D-2′,3′-dideoxy-3′-seleno-cytidine] | – | – | – | – | < 4.00 | 677 | 5.47 | 5.06 | 35.1 | –
8 | Nc1ccn(C2C[Se]C(CO)O2)c(=O)n1 (racemic) [(±)-β-Se-ddC] | – | – | – | – | < 4.00 | 209 | 5.57 | 5.74 | 6.9 | activity against the mutated virus [2]: significant activity
9 | Nc1nc(=O)n(C2C[Se]C(CO)O2)cc1F (racemic) [(±)-β-Se-FddC, 2-hydroxymethyl-4-(N-5′-flurocytosin-1′-yl)-1,3-oxaselenolane] | 59 | 49 | 3.97 | 337 | < 4.00 | 16.4 | 5.26 | – | – | –
